The subject of one test is Z-138 cell line. The test can be described thus: Z-138 Proliferation Assay (Cell Titer Glo, 5 days). The settings on record: Homo sapiens, 120 h, Z-138 cells, 5 days, read-out: Proliferation EC50. Format: cell-based. The procedure, abridged:
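Z-138 cells exposed 5 days at 37 °C, 5% CO2 to nine-point 3-fold dilutions (final top 20 μM, 0.2% DMSO), in triplicate. Viability read as ATP by CellTiter-Glo luminescence; IC50 from 4-parameter fit of normalized dose-response curves.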
For orientation: In ATP-based viability assays light output follows the ATP content of the culture.

For another test, the target named is PRMT5/MEP50 (Homo sapiens (Human), UniProt O14744). Description: PRMT5 Biochemical Assay (PRMT5/MEP50 enzyme assay on peptide substrate, 3H-SAM Flashplate). The procedure, abridged: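 Radiometric methylation of a biotin-tagged H4(1-15) peptide by human PRMT5/MEP50 from baculovirus/Sf9, with ³H-SAM incorporation read on streptavidin Flashplates. Buffer: Bicine pH 7.6, TCEP, BSG, Tween20; compound preincubated 30 min at 25 °C; stopped with 600 µM final unlabeled SAM. DMSO and SAH controls; IC50 from fitted % inhibition.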
PRMT5/MEP50, sequence (O14744 other isoform, or with tags, fused parts or gaps): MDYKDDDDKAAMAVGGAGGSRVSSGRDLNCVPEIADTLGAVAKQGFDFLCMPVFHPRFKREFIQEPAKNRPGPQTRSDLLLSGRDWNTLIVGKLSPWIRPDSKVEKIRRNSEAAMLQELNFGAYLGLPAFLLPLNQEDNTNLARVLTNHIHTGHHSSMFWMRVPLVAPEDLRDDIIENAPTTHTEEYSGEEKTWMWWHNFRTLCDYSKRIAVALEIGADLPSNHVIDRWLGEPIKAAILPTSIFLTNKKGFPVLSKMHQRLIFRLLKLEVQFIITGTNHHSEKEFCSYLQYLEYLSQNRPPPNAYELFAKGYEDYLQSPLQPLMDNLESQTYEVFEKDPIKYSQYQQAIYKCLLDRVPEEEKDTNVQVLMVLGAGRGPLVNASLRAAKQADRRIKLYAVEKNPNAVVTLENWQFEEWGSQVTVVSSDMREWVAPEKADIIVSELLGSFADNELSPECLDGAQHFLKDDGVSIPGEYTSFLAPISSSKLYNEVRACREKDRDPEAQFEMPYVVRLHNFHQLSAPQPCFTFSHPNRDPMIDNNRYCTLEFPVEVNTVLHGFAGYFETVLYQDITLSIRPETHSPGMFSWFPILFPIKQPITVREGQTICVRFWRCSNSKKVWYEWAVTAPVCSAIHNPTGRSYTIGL
PRMT5/MEP50, sequence (Q9BQA1 other isoform, or with tags, fused parts or gaps partner): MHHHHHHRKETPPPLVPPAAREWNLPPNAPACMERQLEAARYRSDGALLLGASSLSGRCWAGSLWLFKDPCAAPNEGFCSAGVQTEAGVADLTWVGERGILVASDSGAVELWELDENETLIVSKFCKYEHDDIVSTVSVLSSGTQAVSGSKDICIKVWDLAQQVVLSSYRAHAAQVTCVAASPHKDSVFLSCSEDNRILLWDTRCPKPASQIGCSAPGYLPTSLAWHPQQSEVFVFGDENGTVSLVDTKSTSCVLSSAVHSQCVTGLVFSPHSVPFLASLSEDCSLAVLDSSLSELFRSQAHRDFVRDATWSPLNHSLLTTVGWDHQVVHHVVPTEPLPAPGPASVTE

For test [1], the system named is symmetric di-methyl arginine in Z-138 cells. Description: Z-138 Methylation Assay (In Cell Western for symmetric di-methyl arginine and DNA content). It counts as cell-based. The settings on record: Homo sapiens, read-out: ICW EC50. The procedure, abridged:
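Z-138 cells (50,000 cells/mL) treated with compound 96 h at 37 °C, then fixed and stained for symmetric di-methyl arginine (800 nm) with DRAQ5 DNA counterstain (700 nm) on Licor Odyssey.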

Like-named read-outs stand apart in the source and are kept apart here. Some results are limits rather than exact numbers.

As to `CC(=O)N1CCC(Nc2cc(C(=O)NC[C@H](O)CN3CCc4ccccc4C3)cc(N3CCN(C)CC3)n2)CC1` [Compound 612], the EC50 (with Z-138 cell line (Cell Titer Glo); in test [1] (In Cell Western methylation)) was below 100 nM each time. For the same compound, on PRMT5/MEP50 (PRMT5 biochemical assay), the IC50 is below 100 nM.

On to `O=C(NC[C@H](O)CN1CCc2ccccc2C1)c1ccnc(OCCNCC(F)(F)F)c1` [Compound 421], for which the results for the EC50 (with Z-138 cell line (Cell Titer Glo); in test [1] (In Cell Western methylation)) were 1000 to 10000 nM and below 100 nM, respectively. Also, the IC50 at PRMT5/MEP50 (PRMT5 biochemical assay) is below 100 nM.

For the compound `CCN1CCN(c2nc(NC3CNC3)cc(C(=O)NC[C@H](O)CN3CCc4ccccc4C3)n2)CC1` [Compound 466], the EC50 in the test with Z-138 cell line (Cell Titer Glo) fell in the range of 1000 to 10000 nM; in test [1] (In Cell Western methylation), 101 to 1000 nM. At PRMT5/MEP50 (PRMT5 biochemical assay), the IC50 was below 100 nM.

On to `COC(CNC(=O)c1cc(NC2CCN(C(=O)C3CC3)CC2)ncn1)CN1CCc2ccccc2C1` (stereo not drawn) [Compound 553], for which the figures for the EC50 (in the test with Z-138 cell line (Cell Titer Glo); in test [1] (In Cell Western methylation)) were above 5000 nM and 101 to 1000 nM, respectively. Moreover, the IC50 on PRMT5/MEP50 (PRMT5 biochemical assay) is below 100 nM.

Consider `O=C(NC[C@H](O)CN1CCc2ccccc2C1)C1=CC2=N[C@@H](CO)CN2C=N1` [Compound 634], for which the figures for the EC50 (in the test on Z-138 cell line (Cell Titer Glo); in test [1] (In Cell Western methylation)) were above 5000 nM and above 1000 nM, respectively. Moreover, the IC50 at PRMT5/MEP50 (PRMT5 biochemical assay) was in the range of 101 to 1000 nM.

With `COCCN(C)c1nc(NC2COC2)cc(C(=O)NC[C@H](O)CN2CCc3ccccc3C2)n1` [Compound 460], the EC50 (in the test with Z-138 cell line (Cell Titer Glo); in test [1] (In Cell Western methylation)) was below 100 nM each time. Moreover, the half-maximal inhibitory concentration (IC50) on PRMT5/MEP50 (PRMT5 biochemical assay) is below 100 nM.

Turning to `CC(=O)N1CC(Nc2cc(C(=O)NC[C@H](O)CN3CCc4cccc(C)c4C3)ncn2)C1` [Compound 663], the EC50 is 101 to 1000 nM in the test with Z-138 cell line (Cell Titer Glo) and below 100 nM in test [1] (In Cell Western methylation). At PRMT5/MEP50 (PRMT5 biochemical assay), the IC50 is below 100 nM.

As to `CN(C)[C@H]1CC[C@H](Nc2cc(C(=O)NC[C@H](O)CN3CCc4ccccc4C3)ncn2)CC1` [Compound 593], the EC50 in the test with Z-138 cell line (Cell Titer Glo) was 101 to 1000 nM; in test [1] (In Cell Western methylation), below 100 nM. In addition, the 50% inhibitory concentration (IC50) at PRMT5/MEP50 (PRMT5 biochemical assay) is below 100 nM.

Turning to `CC(C(O)CNC(=O)c1cc(NC2COC2)ncn1)N1CCc2ccccc2C1` (stereo not drawn) [Compound 607], the EC50 in the test on Z-138 cell line (Cell Titer Glo) is above 5000 nM; in test [1] (In Cell Western methylation), above 1000 nM. Further, the IC50 on PRMT5/MEP50 (PRMT5 biochemical assay) was in the range of 1000 to 10000 nM.

Take `O=C(NC[C@H](O)CN1CCc2ccccc2C1)C1=CC2=N[C@H](CO)CN2C=N1` [Compound 548]: the EC50 with Z-138 cell line (Cell Titer Glo) is above 5000 nM; in test [1] (In Cell Western methylation), above 1000 nM. Also, the IC50 at PRMT5/MEP50 (PRMT5 biochemical assay) was in the range of 101 to 1000 nM.

`CN(C)CCCNc1cc(C(=O)NC[C@H](O)CN2CCc3ccccc3C2)ncn1` [Compound 354]: the EC50 in the test on Z-138 cell line is 1000 to 10000 nM; in test [1], below 100 nM. Moreover, at PRMT5/MEP50, the 50% inhibitory concentration (IC50) was below 100 nM.

Regarding `NC(=O)[C@H]1CC[C@H](Nc2cc(C(=O)NC[C@H](O)CN3CCc4ccccc4C3)ncn2)CC1` [Compound 601], the EC50 in the test with Z-138 cell line (Cell Titer Glo) was 101 to 1000 nM; in test [1] (In Cell Western methylation) it was below 100 nM. At PRMT5/MEP50 (PRMT5 biochemical assay), the IC50 is below 100 nM.

For `CCN1CCC(Oc2ccc(C(=O)NC[C@H](O)CN3CCc4ccccc4C3)cc2)CC1` [Compound 346], the values for the EC50 (in the test with Z-138 cell line; in test [1]) were 101 to 1000 nM and below 100 nM, respectively. Moreover, the IC50 on PRMT5/MEP50 is below 100 nM.

Consider `CC(NC(=O)c1cc(NC2CCNCC2)ncn1)C(O)CN1CCc2ccccc2C1` (stereo not drawn) [Compound 534], for which the EC50 was above 5000 nM in the test on Z-138 cell line (Cell Titer Glo) and above 1000 nM in test [1] (In Cell Western methylation). Further, the IC50 on PRMT5/MEP50 (PRMT5 biochemical assay) fell in the range of 101 to 1000 nM.

Turning to `CC(=O)N1CCC[C@@H](Nc2cc(C(=O)NC[C@H](O)CN3CCc4ccccc4C3)ncn2)C1` [Compound 571], the EC50 in the test with Z-138 cell line (Cell Titer Glo) was 1000 to 10000 nM; in test [1] (In Cell Western methylation), below 100 nM. Moreover, the IC50 on PRMT5/MEP50 (PRMT5 biochemical assay) is below 100 nM.

Turning to `O=C(NC[C@H](O)CN1CCc2ccccc2C1)c1cc(N[C@H]2C[C@@H](C(=O)N3CCCCC3)C2)ncn1` [Compound 519], the EC50 with Z-138 cell line (Cell Titer Glo) was 101 to 1000 nM; in test [1] (In Cell Western methylation), below 100 nM. In addition, the concentration for half-maximal inhibition (IC50) at PRMT5/MEP50 (PRMT5 biochemical assay) is below 100 nM.

`CC(=O)N1CCC(Nc2cc(C(=O)NC[C@H](O)CN3CCc4ccccc4C3)cc(N3CCN(C(C)=O)CC3)n2)CC1` [Compound 613]: the EC50 in the test on Z-138 cell line (Cell Titer Glo) was 101 to 1000 nM; in test [1] (In Cell Western methylation), below 100 nM. Further, the IC50 at PRMT5/MEP50 (PRMT5 biochemical assay) was below 100 nM.

Consider `CCS(=O)(=O)CCNc1cc(C(=O)NC[C@H](O)CN2CCc3ccccc3C2)ncn1` [Compound 641], for which the EC50 is 1000 to 10000 nM in the test with Z-138 cell line (Cell Titer Glo) and below 100 nM in test [1] (In Cell Western methylation). In addition, the 50% inhibitory concentration (IC50) at PRMT5/MEP50 (PRMT5 biochemical assay) is below 100 nM.

As to `O=C(NC[C@H](O)CN1CCc2ccccc2C1)c1cccc2ccccc12` [Compound 295], the EC50 was 1000 to 10000 nM with Z-138 cell line and below 100 nM in test [1]. In addition, the IC50 at PRMT5/MEP50 was below 100 nM.

Turning to `CC(C)NCCOc1ccc(C(=O)NC[C@H](O)CN2CCc3ccccc3C2)cc1` [Compound 390], the EC50 in the test on Z-138 cell line was 1000 to 10000 nM; in test [1] it was below 100 nM. Further, the IC50 on PRMT5/MEP50 is below 100 nM.

As for `CC(C)(C)c1nc(NC2COC2)cc(C(=O)NC[C@H](O)CN2CCc3ccccc3C2)n1` [Compound 527], the EC50 is 101 to 1000 nM with Z-138 cell line (Cell Titer Glo) and below 100 nM in test [1] (In Cell Western methylation). Also, the IC50 at PRMT5/MEP50 (PRMT5 biochemical assay) is below 100 nM.

Regarding `CNCCOc1cc(C(=O)NC[C@H](O)CN2CCc3ccccc3C2)ccn1` [Compound 420], the EC50 was 1000 to 10000 nM in the test with Z-138 cell line (Cell Titer Glo) and below 100 nM in test [1] (In Cell Western methylation). Moreover, the concentration for half-maximal inhibition (IC50) on PRMT5/MEP50 (PRMT5 biochemical assay) is below 100 nM.

In the case of `O=C(NCC(O)CN1CCc2ccccc2C1)c1cccc(C2CCCN2)c1` (stereo not drawn) [Compound 42, N-(3-(3,4-dihydroisoquinolin-2(1H)-yl)-2-hydroxypropyl)-3-(pyrrolidin-2-yl)benzamide], the EC50 in the test with Z-138 cell line is above 20000 nM; in test [1], 1000 to 10000 nM. For the same compound, the half-inhibitory concentration (IC50) on PRMT5/MEP50 lay within 101 to 1000 nM.

`Cc1cc(Nc2cc(C(=O)NC[C@H](O)CN3CCc4ccccc4C3)ccn2)n[nH]1` [Compound 433]: the EC50 was 1000 to 10000 nM with Z-138 cell line (Cell Titer Glo) and below 100 nM in test [1] (In Cell Western methylation). The IC50 on PRMT5/MEP50 (PRMT5 biochemical assay) is below 100 nM.

As to `CC(=O)N1CC(Nc2cc(C(=O)NC[C@H](O)CN3CCc4ccccc4C3(C)C)ncn2)C1` [Compound 605], the EC50 with Z-138 cell line (Cell Titer Glo) was above 5000 nM; in test [1] (In Cell Western methylation), 101 to 1000 nM. Further, at PRMT5/MEP50 (PRMT5 biochemical assay), the IC50 was 101 to 1000 nM.

On to `COCCN(C)c1cc(NC2CCN(C(C)=O)CC2)cc(C(=O)NC[C@H](O)CN2CCc3ccccc3C2)n1` [Compound 672], for which the EC50 (in the test on Z-138 cell line (Cell Titer Glo); in test [1] (In Cell Western methylation)) was below 100 nM each time. The IC50 on PRMT5/MEP50 (PRMT5 biochemical assay) is below 100 nM.

Regarding `CC(C)(C)C(=O)N1CC(Nc2cc(C(=O)NC[C@H](O)CN3CCc4ccccc4C3)ccn2)C1` [Compound 505], the EC50 with Z-138 cell line (Cell Titer Glo) was 101 to 1000 nM; in test [1] (In Cell Western methylation), below 100 nM. The IC50 on PRMT5/MEP50 (PRMT5 biochemical assay) was below 100 nM.

For `CCC(=O)N1CCN(c2nc(NC3COC3)cc(C(=O)NC[C@H](O)CN3CCc4ccccc4C3)n2)CC1` [Compound 462], the EC50 (in the test on Z-138 cell line (Cell Titer Glo); in test [1] (In Cell Western methylation)) was below 100 nM each time. Moreover, on PRMT5/MEP50 (PRMT5 biochemical assay), the IC50 was below 100 nM.

Take `O=C(NC[C@H](O)CN1CCc2ccccc2C1)c1cc(NC2CCC2)nc(N2CCOCC2)c1` [Compound 349]: the EC50 (in the test on Z-138 cell line; in test [1]) was below 100 nM in each case. At PRMT5/MEP50, the half-inhibitory concentration (IC50) is below 100 nM.

In the case of `Cc1cc(C(=O)NC[C@H](O)CN2CCc3ccccc3C2)cc(NC2CCC2)n1` [Compound 348], the figures for the EC50 (with Z-138 cell line; in test [1]) were 101 to 1000 nM and below 100 nM, respectively. Further, the 50% inhibitory concentration (IC50) at PRMT5/MEP50 was below 100 nM.

Regarding `CC(C)N(C)CCOc1ccc(C(=O)NC[C@H](O)CN2CCc3ccccc3C2)cc1` [Compound 389], the EC50 with Z-138 cell line is 1000 to 10000 nM; in test [1] it was below 100 nM. Moreover, the IC50 on PRMT5/MEP50 was below 100 nM.

With `O=C(NC[C@H](O)CN1CCc2ccccc2C1)c1cc(NC2CCC2)nc(N2CCNCC2)c1` [Compound 393], the EC50 (in the test on Z-138 cell line; in test [1]) was below 100 nM throughout. Also, the IC50 at PRMT5/MEP50 was below 100 nM.

By IC50 is commonly meant the concentration needed to halve the response being measured.
